Assay results published in US11780830B2, “Triazolone derivatives or salts thereof and pharmaceutical compositions comprising the same” (YUHAN CORPORATION, priority 2018, dated 2023).
Counter-ions that a name gives are not always drawn.

Columns and labels:
Assay type in all cases: biochemical
recombinant human VAP-1 = target: T1, recombinant human VAP-1 (Homo sapiens, UniProt Q16853); test: Activity on recombinant human VAP-1, HRP-coupled Amplex Red hydrogen peroxide assay; settings: substrate 1 mM benzylamine; compound incubated with enzyme at 37° C. for 30 minutes; pH 7.4; read-out: Inhibitory Activity (IC50, nM) human VAP-1
T1 construct: purchased R&D systems
T1 sequence (Q16853 1-763): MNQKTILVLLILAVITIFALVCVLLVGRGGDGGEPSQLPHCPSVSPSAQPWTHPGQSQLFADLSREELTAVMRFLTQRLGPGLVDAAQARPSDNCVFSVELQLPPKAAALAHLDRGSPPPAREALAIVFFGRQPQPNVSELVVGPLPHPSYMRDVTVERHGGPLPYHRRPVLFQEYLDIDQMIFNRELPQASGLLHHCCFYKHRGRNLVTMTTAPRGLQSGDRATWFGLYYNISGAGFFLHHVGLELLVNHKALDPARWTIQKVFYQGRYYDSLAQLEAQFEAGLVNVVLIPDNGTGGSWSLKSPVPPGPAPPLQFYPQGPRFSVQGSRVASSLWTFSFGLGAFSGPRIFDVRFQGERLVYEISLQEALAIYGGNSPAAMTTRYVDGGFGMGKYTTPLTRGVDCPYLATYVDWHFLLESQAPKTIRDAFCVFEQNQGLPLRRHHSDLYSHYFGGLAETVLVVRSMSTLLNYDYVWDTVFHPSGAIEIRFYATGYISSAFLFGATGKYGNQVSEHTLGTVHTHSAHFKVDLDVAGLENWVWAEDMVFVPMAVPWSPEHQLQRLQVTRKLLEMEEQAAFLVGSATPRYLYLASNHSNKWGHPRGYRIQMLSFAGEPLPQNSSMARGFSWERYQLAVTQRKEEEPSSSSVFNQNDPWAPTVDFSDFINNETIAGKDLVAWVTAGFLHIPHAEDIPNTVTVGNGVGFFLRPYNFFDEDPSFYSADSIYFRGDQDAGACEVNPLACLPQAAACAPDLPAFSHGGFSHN
Method in brief: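 H2O2 generation from 1 mM benzylamine was coupled via 1 U/mL HRP to 200 uM Amplex Red; inhibitors, serially diluted 1:3 over 8 points with under 1% final DMSO, had been preincubated 30 min at 37 °C. IC50 from percentage drop in rate.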

[1] = target: T2, recombinant human MAO-B (monoamine oxidase-B) (Homo sapiens, UniProt P27338); test: Activity on recombinant human MAO-B, method similar to the VAP-1 assay; settings: substrate 1 mM benzylamine; read-out: Inhibitory Activity (IC50, nM) MAO-B
T2 construct: purchased Sigma-Aldrich
T2 sequence (P27338 1-520): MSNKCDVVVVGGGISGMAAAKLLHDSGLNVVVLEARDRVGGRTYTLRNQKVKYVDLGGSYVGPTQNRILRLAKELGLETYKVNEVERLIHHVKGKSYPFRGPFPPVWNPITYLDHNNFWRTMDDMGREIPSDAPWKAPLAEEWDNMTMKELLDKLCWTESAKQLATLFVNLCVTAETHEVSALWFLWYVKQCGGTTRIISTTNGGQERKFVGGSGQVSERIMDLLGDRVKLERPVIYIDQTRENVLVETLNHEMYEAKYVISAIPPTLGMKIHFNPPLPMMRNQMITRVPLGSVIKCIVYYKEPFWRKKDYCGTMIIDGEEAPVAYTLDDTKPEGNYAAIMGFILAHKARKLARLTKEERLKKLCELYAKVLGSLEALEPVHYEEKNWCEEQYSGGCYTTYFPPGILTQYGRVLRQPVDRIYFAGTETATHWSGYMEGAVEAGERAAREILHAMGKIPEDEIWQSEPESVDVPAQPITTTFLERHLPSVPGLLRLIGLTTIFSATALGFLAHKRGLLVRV
Method in brief: (§1)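 First, serially diluted compounds were incubated with recombinant enzyme in 50 mM sodium phosphate, pH 7.4, for 30 min at 37° C. Next, Amplex Red (200 uM), HRP (1 U/mL) and tyramine (0.5 mM, MAO-A) or benzylamine (1 mM, MAO-B) were added. Then fluorescence was monitored over 1-2 h and IC50 fitted.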

[2] = target: T3, recombinant human DAO (diamine oxidase) (Homo sapiens, UniProt P19801); test: Activity on recombinant human DAO, method similar to the VAP-1 assay; settings: substrate 1 mM putrescine; read-out: Inhibitory Activity (IC50, nM) DAO
T3 construct: purchased R&D systems
T3 sequence (P19801 20-751): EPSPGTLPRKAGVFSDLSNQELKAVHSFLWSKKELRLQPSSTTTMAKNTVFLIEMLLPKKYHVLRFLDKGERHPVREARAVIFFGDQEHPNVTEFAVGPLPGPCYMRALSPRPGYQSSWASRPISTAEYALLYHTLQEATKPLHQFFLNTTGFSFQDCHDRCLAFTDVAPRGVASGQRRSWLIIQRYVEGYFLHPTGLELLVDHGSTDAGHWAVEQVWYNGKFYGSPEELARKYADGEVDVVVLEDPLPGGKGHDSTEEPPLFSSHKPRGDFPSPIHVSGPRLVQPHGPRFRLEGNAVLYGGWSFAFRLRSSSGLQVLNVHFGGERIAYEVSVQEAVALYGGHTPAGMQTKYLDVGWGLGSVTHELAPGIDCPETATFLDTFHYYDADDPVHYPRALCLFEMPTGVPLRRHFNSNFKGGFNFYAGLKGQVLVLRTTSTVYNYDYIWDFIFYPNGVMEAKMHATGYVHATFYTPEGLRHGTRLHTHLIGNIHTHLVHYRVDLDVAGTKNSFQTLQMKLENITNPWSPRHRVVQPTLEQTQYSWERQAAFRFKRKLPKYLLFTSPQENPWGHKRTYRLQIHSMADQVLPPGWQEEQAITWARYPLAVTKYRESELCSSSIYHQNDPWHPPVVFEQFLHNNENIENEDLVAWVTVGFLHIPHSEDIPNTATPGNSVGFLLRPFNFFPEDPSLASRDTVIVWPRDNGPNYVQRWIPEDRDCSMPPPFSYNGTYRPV
Method in brief: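 Inhibition of recombinant human diamine oxidase (DAO, R&D systems) was assessed by the same approach as the VAP-1 assay, using 1 mM putrescine as substrate. Hydrogen peroxide formed was detected through an HRP-coupled Amplex Red reaction yielding fluorescent resorufin, read at 544 nm excitation and 590 nm emission. IC50 values came from four-parameter logistic fitting in GraphPad Prism.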

[3] = target: T4, recombinant human MAO-A (monoamine oxidase-A) (Homo sapiens, UniProt P21397); test: Activity on recombinant human MAO-A, method similar to the VAP-1 assay; settings: substrate 0.5 mM tyramine; read-out: Inhibitory Activity (IC50, nM) MAO-A
T4 construct: purchased Sigma-Aldrich
T4 sequence (P21397 1-527): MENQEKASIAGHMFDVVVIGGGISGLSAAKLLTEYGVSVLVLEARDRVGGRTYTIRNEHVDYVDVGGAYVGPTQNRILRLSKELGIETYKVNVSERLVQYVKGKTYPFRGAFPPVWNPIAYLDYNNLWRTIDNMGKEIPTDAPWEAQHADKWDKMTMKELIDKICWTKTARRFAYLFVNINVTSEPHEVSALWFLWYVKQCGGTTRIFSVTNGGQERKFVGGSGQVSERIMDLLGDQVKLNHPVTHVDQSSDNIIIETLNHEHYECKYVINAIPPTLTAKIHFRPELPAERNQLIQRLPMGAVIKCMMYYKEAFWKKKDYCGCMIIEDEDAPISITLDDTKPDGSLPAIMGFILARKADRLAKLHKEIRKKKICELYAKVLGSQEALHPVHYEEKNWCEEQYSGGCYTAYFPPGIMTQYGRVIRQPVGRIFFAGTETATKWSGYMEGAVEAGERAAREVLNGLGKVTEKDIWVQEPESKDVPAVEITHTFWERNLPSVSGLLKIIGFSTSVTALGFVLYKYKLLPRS
Method in brief: as §1

| Structure (SMILES) | IC50 (recombinant human VAP-1) [nM] | IC50 [1] [nM] | IC50 [2] [nM] | IC50 [3] [nM] |
| --- | --- | --- | --- | --- |
| CN1CCOc2cc(-c3ccc(Cn4cnn(C/C(=C/F)CN)c4=O)s3)ccc21 [Example 103, 2-[(2E)-2-(aminomethyl)-3-fluoroprop-2-en-1-yl]-4-[5-(4-methyl-3,4-dihydro-2H-1,4-benzoxazin-7-yl)thiophen-2-yl]methyl-2,4-dihydro-3H-1,2,4-triazol-3-one hydrochloride] | 3.2 | 1500 | 1100 | 15000 |
| CN1CCNc2cc(-c3ccc(Cn4cnn(C/C(=C/F)CN)c4=O)s3)ccc21 [Example 104, 2-[(E)-2-(aminomethyl)-3-fluoro-allyl]-4-[[5-(1-methyl-3,4-dihydro-2H-quinoxalin-6-yl)-2-thienyl]methyl]-1,2,4-triazol-3-one] | 1.1 | 1200 | 390 | 4000 |
| NC/C(=C\F)Cn1ncn(Cc2ccc(-c3ccc4c(c3F)NCCO4)s2)c1=O [Example 106, 2-[(E)-2-(aminomethyl)-3-fluoro-allyl]-4-[[5-(5-fluoro-3,4-dihydro-2H-1,4-benzoxazin-6-yl)-2-thienyl]methyl]-1,2,4-triazol-3-one] | 0.8 | 250 | 2500 | 11000 |
| NC/C(=C\F)Cn1ncn(Cc2ccc(-c3cc4c(cc3F)OCCN4)s2)c1=O [Example 107, 2-[(E)-2-(aminomethyl)-3-fluoro-allyl]-4-[[5-(7-fluoro-3,4-dihydro-2H-1,4-benzoxazin-6-yl)-2-thienyl]methyl]-1,2,4-triazol-3-one] | 1.5 | 320 | 960 | 18000 |
| Cc1c(-c2ccc(Cn3cnn(C/C(=C/F)CN)c3=O)s2)ccc2c1NCCO2 [Example 108, 2-[(E)-2-(aminomethyl)-3-fluoro-allyl]-4-[[5-(5-methyl-3,4-dihydro-2H-1,4-benzoxazin-6-yl)-2-thienyl]methyl]-1,2,4-triazol-3-one] | 0.8 | 3200 | 250 | 21000 |

Further lines, results first:

| IC50 (recombinant human VAP-1) [nM] | IC50 [1] [nM] | IC50 [2] [nM] | IC50 [3] [nM] | Structure (SMILES) |
| --- | --- | --- | --- | --- |
| 0.8 | 120 | 310 | 87000 | CN1C(=O)COc2ccc(-c3ccc(Cn4cnn(C/C(=C/F)CN)c4=O)s3)cc21 [Example 96, 6-[5-(1-[(2E)-2-(aminomethyl)-3-fluoroprop-2-en-1-yl]-5-oxo-1,5-dihydro-4H-1,2,4-triazol-4-ylmethyl)thiophen-2-yl]-4-methyl-2H-1,4-benzoxazin-3(4H)-one hydrochloride] |
| 0.4 | 380 | 230 | 28000 | CC1Oc2ccc(-c3ccc(Cn4cnn(C/C(=C/F)CN)c4=O)s3)cc2NC1=O (stereo not drawn) [Example 97, 6-[5-[[1-[(E)-2-(aminomethyl)-3-fluoro-allyl]-5-oxo-1,2,4-triazol-4-yl]methyl]-2-thienyl]-2-methyl-4H-1,4-benzoxazin-3-one hydrochloride] |
| 0.4 | 530 | 200 | > 100000 | CC1(C)Oc2ccc(-c3ccc(Cn4cnn(C/C(=C/F)CN)c4=O)s3)cc2NC1=O [Example 98, 6-[5-[[1-[(E)-2-(aminomethyl)-3-fluoro-allyl]-5-oxo-1,2,4-triazol-4-yl]methyl]-2-thienyl]-2,2-dimethyl-4H-1,4-benzoxazin-3-one] |
| 0.1 | 810 | 140 | > 100000 | NC/C(=C\F)Cn1ncn(Cc2ccc(-c3ccc4c(c3)NC(=O)OC4)s2)c1=O [Example 100, 7-[5-(1-[(2E)-2-(aminomethyl)-3-fluoroprop-2-en-1-yl]-5-oxo-1,5-dihydro-4H-1,2,4-triazol-4-ylmethyl)thiophen-2-yl]-1,4-dihydro-2H-3,1-benzoxazin-2-one hydrochloride] |
| 0.2 | 540 | 900 | > 100000 | NC/C(=C\F)Cn1ncn(Cc2ccc(-c3ccc4c(c3)COC(=O)N4)s2)c1=O [Example 101, 6-[5-(1-[(2E)-2-(aminomethyl)-3-fluoroprop-2-en-1-yl]-5-oxo-1,5-dihydro-4H-1,2,4-triazol-4-ylmethyl)thiophen-2-yl]-1,4-dihydro-2H-3,1-benzoxazin-2-one hydrochloride] |
| 0.2 | 480 | 760 | > 100000 | Cc1c(-c2ccc(Cn3cnn(C/C(=C/F)CN)c3=O)s2)ccc2c1COC(=O)N2 [Example 102, 6-[5-[[1-[(E)-2-(aminomethyl)-3-fluoro-allyl]-5-oxo-1,2,4-triazol-4-yl]methyl]-2-thienyl]-5-methyl-1,4-dihydro-3,1-benzoxazin-2-one] |
| 1.8 | 420 | 8500 | 38400 | NC/C(=C\F)Cn1ncn(Cc2ccc(-c3ccc4c(c3)NCCO4)s2)c1=O [Example 105, 2-[(E)-2-(aminomethyl)-3-fluoro-allyl]-4-[[5-(3,4-dihydro-2H-1,4-benzoxazin-6-yl)-2-thienyl]methyl]-1,2,4-triazol-3-one] |
